Data on five compounds can be found in paper PMC9772221 (Archives of biochemistry and biophysics, 2022).

The target in experiment [1] is PYCR1. Conditions: read-out: Ki against PYCR1; cited from earlier work.
Experiment [2] concerns the target T1, PYCR3 (Homo sapiens, UniProt Q53H96).
T1 sequence (Q53H96 11-274): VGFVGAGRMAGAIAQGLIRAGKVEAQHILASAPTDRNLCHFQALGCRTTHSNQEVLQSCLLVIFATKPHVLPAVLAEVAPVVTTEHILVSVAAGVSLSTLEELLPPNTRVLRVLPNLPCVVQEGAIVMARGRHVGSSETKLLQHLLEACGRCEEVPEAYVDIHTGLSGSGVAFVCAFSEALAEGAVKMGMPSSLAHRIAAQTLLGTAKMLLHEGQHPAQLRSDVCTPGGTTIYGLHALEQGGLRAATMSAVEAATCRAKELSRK
Description: Competitive. The experiment is classed as biochemical. The settings on record: pH 7.5, 26°C, NADH fixed at 175 μM.

For experiment [3], the target named is T1, PYCR3. Description: Single-point inhibition screen of proline analogs against PYCR3. The experiment is classed as biochemical. The settings on record: proline analog 5 mM, L-P5C 200 μM, NADH 175 μM.
Experiment [4] addresses PYCR3. Conditions: read-out: Ki of L-proline against PYCR3, previous estimate; cited from earlier work.
For experiment [5], the target named is T1, PYCR3. Description: Bi-substrate kinetic analysis of PYCR3, global fitting to bi bi models. In kind it is biochemical. The settings on record: read-out: K^P5C, L-P5C on abscissa, L-P5C binds first, pH 7.5, 26°C.
Experiment [6] deals with PYCR1. The settings on record: PYCR1, variable L-P5C, NADH = 175 μM; cited from earlier work.
In experiment [7] the target is T1, PYCR3. The experiment can be described thus: Steady-state. The experiment is classed as biochemical. Conditions: pH 7.5, 26°C.
Where [8] appears, read: PYCR3, variable L-P5C, NADH = 175 μM.
[9] abbreviates: PYCR3, variable L-P5C, NADPH = 175 μM.
[10] abbreviates: PYCR3, variable coenzyme, L-P5C = 400 μM.

Where two headings read alike, the source gives them in different places. Bounds are passed on as bounds.

For the compound `O=CN1CCC[C@H]1C(=O)O` [Compound 2, N-formyl-L-proline], the Ki is 100 µM on PYCR1 [1] and 1.2 ± 0.1 mM on PYCR3 [2] (read-out: Ki, apparent competitive (with L-P5C) inhibition constant). In addition, the “catalytic activity compared to the control assay with no inhibitor” value at PYCR3 [3] is at most 50%.

In the case of `O=C(O)[C@@H]1CCCN1` [Compound 17, L-proline], the Ki at PYCR3 [4] was about 8 mM; at PYCR3 [2] (Ki, apparent competitive (with L-P5C) inhibition constant), 5.7 ± 0.6 mM.

A word on the Km: it is the concentration of substrate that gives half-maximal velocity. Usually kcat stands for the maximal rate divided by the concentration of active sites. In the case of `O=C(O)C1CCC=N1` [L-P5C, Δ^1-pyrroline-5-carboxylate], the results for the Kd at PYCR3 [5] (equilibrium compulsory ordered bi bi (Equation 2)) and at PYCR3 [5] (steady-state compulsory ordered bi bi (Equation 3)) were 1500 ± 700 µM and 110 ± 70 µM, respectively. Further, the Michaelis-Menten constant (Km) in the experiment on PYCR1 [6] was 260 ± 63 µM; at PYCR3 [7] (setting [8]), 315 ± 65 µM; at PYCR3 [7] (setting [9]), 64 ± 48 µM. Also, the kcat was 51 ± 13 s⁻¹ in the experiment on PYCR1 [6], 146 ± 17 s⁻¹ on PYCR3 [7] (setting [8]) and 48 ± 11 s⁻¹ at PYCR3 [7] (setting [9]).

Consider `NC(=O)C1=CN([C@@H]2O[C@H](COP(=O)(O)OP(=O)(O)OC[C@H]3O[C@@H](n4cnc5c(N)ncnc54)[C@H](O)[C@@H]3O)[C@@H](O)[C@H]2O)C=CC1` [NADH], for which, on PYCR3 [7] (setting [10]), the Km is 192 ± 8 µM and the kcat was 235 ± 5 s⁻¹.

Take `NC(=O)C1=CN([C@@H]2O[C@H](COP(=O)(O)OP(=O)(O)OC[C@H]3O[C@@H](n4cnc5c(N)ncnc54)[C@H](OP(=O)(O)O)[C@@H]3O)[C@@H](O)[C@H]2O)C=CC1` [NADPH]: at PYCR3 [7] (setting [10]), the Km was determined as 45 ± 3 µM and the kcat was 70 ± 2 s⁻¹.
